Measured values published in ChEMBL document CHEMBL4715703, “Engineering of a Novel Simplified Human Insulin-Like Peptide 5 Agonist” (J Med Chem, 2016).
Calls of active or inactive are those of the source. The rule behind the calls is not given here. Where a SMILES comes first, the peptide text is derived from it. Bridges are numbered along the chain shown (N, C = ends). Roman numbers before positions name the chains, in order.

Columns and labels:
Relaxin-3 receptor 2 [1] = biological target: T1, Relaxin-3 receptor 2 (Homo sapiens, UniProt Q8TDU9); experiment: Agonist activity at human RXFP4 expressed in CHO-K1 cells assessed as reduction in forskolin-induced cAMP production by pCRE beta-galactosidase reporter assay; type: functional, cell-based
Relaxin-3 receptor 2 [2] = biological target: T1, Relaxin-3 receptor 2; experiment: Displacement of europium-labeled Eu(A)-mINSL5 from human RXFP4 expressed in CHO-K1 cells; type: cell-based
Relaxin-3 receptor 2 [3] = biological target: T1, Relaxin-3 receptor 2; experiment: Agonist activity at human RXFP4 expressed in CHO-K1 cells assessed as induction of ERK1/2 phosphorylation incubated for 5 mins by Alpha-screen sure-fire assay; type: cell-based; details: filed as agonist

T1 sequence (Q8TDU9 whole entry): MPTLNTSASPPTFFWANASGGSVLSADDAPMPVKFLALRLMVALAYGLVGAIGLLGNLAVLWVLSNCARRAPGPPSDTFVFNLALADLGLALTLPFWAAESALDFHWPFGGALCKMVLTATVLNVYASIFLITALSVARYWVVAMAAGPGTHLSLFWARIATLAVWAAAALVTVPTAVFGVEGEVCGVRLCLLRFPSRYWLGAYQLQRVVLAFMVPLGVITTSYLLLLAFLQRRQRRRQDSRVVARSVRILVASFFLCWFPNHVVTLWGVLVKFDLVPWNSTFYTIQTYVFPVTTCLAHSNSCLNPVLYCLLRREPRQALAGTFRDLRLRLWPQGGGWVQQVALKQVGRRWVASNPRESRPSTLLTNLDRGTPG

| SMILES | EC50 (Relaxin-3 receptor 2 [1]) [µM] | Ki (Relaxin-3 receptor 2 [2]) [µM] | Activity (Relaxin-3 receptor 2 [3]) |
| --- | --- | --- | --- |
| CC[C@H](C)[C@@H]1NC(=O)[C@H](Cc2ccc(O)cc2)NC(=O)[C@H]([C@@H](C)CC)NC(=O)[C@H](C(C)C)NC(=O)[C@H]([C@@H](C)O)NC(=O)[C@H](CCCNC(=N)N)NC(=O)[C@H]([C@@H](C)CC)NC(=O)[C@H](Cc2ccc(O)cc2)NC(=O)[C@H](CCC(=O)O)NC(=O)[C@H](CC(C)C)NC(=O)CNC(=O)[C@@H](NC(=O)[C@H](CC(C)C)NC(=O)[C@H](CCCNC(=N)N)NC(=O)[C@@H](NC(=O)[C@H](CO)NC(=O)[C@H](CCC(=O)O)NC(=O)[C@@H](N)CCCCN)C(C)C)CSSC[C@@H]2NC(=O)[C@@H](NC(=O)[C@H](CC(C)C)NC(=O)[C@@H](NC(=O)[C@H](CCC(N)=O)NC(=O)[C@H](CC(C)C)NC(=O)[C@H](CC(=O)O)NC(=O)C3CCC(=O)N3)[C@@H](C)O)CSSC[C@H](NC(=O)CNC(=O)[C@H](CCC(=O)O)NC(=O)[C@H]([C@@H](C)O)NC2=O)C(=O)N[C@@H](CO)C(=O)N[C@@H](CCSC)C(=O)N[C@@H]([C@@H](C)O)C(=O)N[C@@H](CC(=O)O)C(=O)N[C@@H](CC(C)C)C(=O)N[C@@H](CO)C(=O)N[C@@H](C)C(=O)N[C@@H](CC(C)C)C(=O)N[C@H](C(=O)O)CSSC[C@@H](C(=O)N[C@@H](C)C(=O)N[C@@H](CO)C(=O)N[C@@H](CO)C(=O)N[C@@H](CCCNC(=N)N)C(=O)N[C@@H](Cc2c[nH]c3ccccc23)C(=O)O)NC1=O (stereo partly specified) | 0.00457 | 0.0331 | Active |
| CC[C@H](C)[C@@H]1NC(=O)[C@H](Cc2ccc(O)cc2)NC(=O)[C@H]([C@@H](C)CC)NC(=O)[C@H](C(C)C)NC(=O)[C@H]([C@@H](C)O)NC(=O)[C@H](CCCNC(=N)N)NC(=O)[C@H]([C@@H](C)CC)NC(=O)[C@H](Cc2ccc(O)cc2)NC(=O)[C@H](CCC(=O)O)NC(=O)[C@H](CC(C)C)NC(=O)CNC(=O)[C@@H](NC(=O)[C@H](CC(C)C)NC(=O)[C@H](CCCNC(=N)N)NC(=O)[C@@H](NC(=O)[C@H](CO)NC(=O)[C@H](CCC(=O)O)NC(=O)[C@@H](N)CCCCN)C(C)C)CSSC[C@H](N)C(=O)N[C@@H]([C@@H](C)O)C(=O)N[C@@H](CC(=O)O)C(=O)NCC(=O)N[C@@H](C)C(=O)N[C@@H](CO)C(=O)N[C@@H](CCSC)C(=O)N[C@@H](CCCCN)C(=O)N[C@@H](CC(=O)O)C(=O)N[C@@H](CC(C)C)C(=O)N[C@@H](CO)C(=O)N[C@@H](C)C(=O)N[C@@H](CC(C)C)C(=O)N[C@H](C(=O)O)CSSC[C@@H](C(=O)N[C@@H](C)C(=O)N[C@@H](CO)C(=O)N[C@@H](CO)C(=O)N[C@@H](CCCNC(=N)N)C(=O)N[C@@H](Cc2c[nH]c3ccccc23)C(=O)O)NC1=O (I: H-KESVRLCGLEYIRTVIYICASSRW-OH / II: H-CTDGASMKDLSALC-OH; disulfide I:7-II:1, I:19-II:14) | 0.0209 | 0.0295 | Active |
